Data as given in patent publication US12059428B2, “Methods of treating tumor metastasis” (TARIS Biomedical LLC, priority 2017, dated 2024).
Entries after “also recorded” stand apart in the source; their conditions may differ.

Columns and labels:
[1] = system: tumor T regulatory cells to T effector cells; assay: Flow cytometric immunocyte analysis of residual NBTII bladder tumors; assay type: in vivo, rat; conditions: residual NBTII tumors from immunocompetent rats
Protocol: (§1) The direct effects of low dose gemcitabine were studied in athymic rats with human derived MIBC cells, T24-TurboFP635, injected into the bladder. After 3 days tumor growth, gemcitabine or vehicle was perfused into the bladder over 5 days, yielding nominal urine concentrations of 0, 20, 40, or 80 ug/ml gemcitabine, N=6 per group. Tumor bioluminescence was measured on day 5. A companion study in immunocompetent rats inoculated with syngeneic NBTII bladder tumors, provided tumors for immunocyte analysis.

[2] = system: T24-TurboFP635 human derived MIBC cells; assay: Bladder tumor bioluminescence in athymic rats with T24-TurboFP635 cells injected into the bladder; assay type: in vivo, rat; conditions: for reduction in bladder tumor bioluminescence vs control: athymic rats, 5-day perfusion, day 5
Protocol: as §1

[3] = system: TNF-α; assay: TNF-α levels in rats inoculated with NBTII bladder tumors; assay type: in vivo, rat; conditions: FIG. 10
From the text: (§2) IL-10 increases associated with acute treatment are known to facilitate T cell mediated antitumor effects.

[4] = Gemcitabine urine concentration during intravesicular perfusion; assay type: in vivo, rat; conditions: intravesicular perfusion of 180 ug/ml solution
[5] = system: CD4+FOXP3+ and CD8+FOXP3+ regulatory T cells; assay: Splenic regulatory T cells by flow cytometry, NBT-II tumor rats; assay type: in vivo, rat; conditions: vs untreated tumor rats, FIG. 12
From the text: The percentage splenic of regulatory T cells was assed using flow cytometry. […] Intravesicular gemcitabine increased the percentage of activated Cn both CD4+FOXP3+ and CD8+FOXP3+ regulatory T cells, thus indicating activation of the systemic immune system against the tumor.

[6] = system: subcutaneous NBTII tumors; assay: Bladder cannulated rats with only subcutaneous NBTII tumors, no bladder tumor (Example 4); assay type: in vivo, rat; conditions: two perfusion cycles, FIG. 7
Protocol: To confirm the observed effects on subcutaneous tumor growth is the result of the local action of intravesical gemcitabine on bladder tumors, an additional series of experiments were completed in which bladder cannulated rats were implanted with only subcutaneous NBTII tumors. The animals were then treated with two perfusion cycles of intravesical gemcitabine as in the previous experiments. […] These findings both confirm the presence of a bladder tumor is required and the observed reductions in subcutaneous tumors are mediated immunologically.

[7] = system: TGF-β; assay: Circulating TGF-β in rats inoculated with NBTII bladder tumors; assay type: in vivo, rat; conditions: low concentration intravesical perfusion, FIG. 8
From the text: TGF-β drives Treg cell expression which in turn suppresses both local and systemic CD4 and CD8 T cell response against the bladder tumor.

[8] = system: activated CD4 and CD8 cells in the spleen; assay: Activated CD4 and CD8 cells in the spleen by flow cytometry, NBT-II tumor rats; assay type: in vivo, rat; conditions: vs untreated tumor rats, FIG. 11
Protocol: Rats were inoculated with NBT-II tumors and the number of activated CD4 and CD8 cells in the spleen was assessed by flow cytometry either in rats treated with intravesicular gemcitabine or untreated rats. […] Intravesicular gemcitabine increased the percentage of activated CD4 and CD8 cells, thus indicating activation of the immune system against the tumor.

[9] = system: subcutaneous NBTII tumors; assay: Varying gemcitabine bladder exposure, simultaneously implanted bladder and subcutaneous NBTII tumors (Example 3); assay type: in vivo, rat; conditions: perfusion 45 and 90 μg/ml, nominal urine 10 and 20 μg/ml, FIG. 6
From the text: Extending the investigation described in EXAMPLE 1, additional studies of NBTII bladder and subcutaneous tumors evaluated the effect of varying gemcitabine bladder exposures with and without simultaneous bladder tumor implantation.
In one set of experiments, gemcitabine perfusion concentrations were varied to evaluate the effect of differing bladder tumor exposures on subcutaneous tumor growth rates. Bladder cannulated rats (n=10 per treatment group) with simultaneously implanted bladder and subcutaneous NBTII tumors were studied over two treatment cycles, each separated by a 7-day drug free period, as used in the EXAMPLE 1 study.
Gemcitabine perfusion concentrations of 45 μg/ml and 90 μg/ml were tested, producing nominal urine concentrations of 10 μg/ml and 20 μg/ml respectively, representing […] reductions vs the original study gemcitabine urine concentrations. Subcutaneous tumor growth was measured during the study as previously.

[10] = system: NBTII flank tumors; assay: Gemcitabine immunogenicity study, NBTII bladder and flank tumors (Example 2); assay type: in vivo, rat
From the text: Gemcitabine immunogenicity was studied in immunocompetent rats with NBTII cells injected into the bladder and subcutaneous flank tissue; flank tumors were implanted either simultaneously with bladder tumors or 14 days after bladder tumor injection. Control groups received only flank tumors, N=15, or bladder and flank tumors with vehicle perfusion, N=10. […]

[11] = system: subcutaneous NBTII tumors; assay: Bladder and flank NBTII tumor model, subcutaneous tumor volume by caliper (Example 1); assay type: in vivo, rat
From the text: Standardized bladder perfusion system was modified to introduce bladder and subcutaneous tumors. The bladders were first surgically cannulated by placing a catheter into the bladder, fixed in place using a suture, the free end exteriorized between the scapulae.
The animals were allowed to heal. Bladder tumors were established by injecting tumor cell suspension directly into bladder wall. Subcutaneous tumor was established by injecting tumor cell suspension under skin abdominal flank.
The bladder and flank tumor model used in this study utilized immunocompetent Wistar rats, 7 to 8 weeks in age and weighing between 150 to 200 g. The bladders were first surgically cannulated by placing a P50 catheter into the bladder dome which was fixed in place using a purse string suture and the free end exteriorized between the scapulae. […] Per study protocol, different groups of bladder cannulated rats were next inoculated with NBTII tumor cells (Nara Bladder Tumor No. 2; ATCC® CRL1655™). This is a rat syngeneic bladder tumor cell line originally derived from tumors induced with N-butyl-N-(4-hydroxybutyl) nitrosamine. In certain treatment groups, the tumor cells were injected directly into the bladder wall as a 50 uL cell suspension of approximately 2×10^6 cells. […]
Group 4 (SCT with BT, N=10) animal bladders were cannulated on study Day 0 and on study Day 4 both the bladder and abdominal flank were inoculated with NBTII tumor cells. Gemcitabine HCl in PBS (180 ug/mL) was perfused via the cannula into the bladder beginning on study Day 6 at a constant rate of 0.3 mL per hour for 5 days and again beginning on Day 20 for an additional 5 day treatment period.
Subcutaneous tumor volumes were serially measured post inoculation every two or three days using a caliper method.

[12] = prior studies in animals and humans; cited from earlier work
[13] = system: IL-10; assay: IL-10 levels in rats inoculated with NBTII bladder tumors; assay type: in vivo, rat; conditions: spleens of treated animals, FIG. 9
From the text: as §2

[14] = system: NBTII tumor cells; assay: Bladder tumor growth after inoculation with NBTII tumor cells; assay type: in vivo, rat; conditions: average urine concentration 40 ug/mL
[15] = rats with concomitant bladder tumors

Nc1ccn([C@@H]2O[C@H](CO)[C@@H](O)C2(F)F)c(=O)n1 [gemcitabine, 2′,2′-difluorodeoxycytidine]
decrease in the proportion of tumor T regulatory cells to T effector cells [1]: 85.2% | reduction in bladder tumor bioluminescence vs control ([2]; nominal urine concentration 20 ug/ml): 47.6% | reduction in bladder tumor bioluminescence vs control ([2]; nominal urine concentration 40 ug/ml): 70.5% | reduction in bladder tumor bioluminescence vs control ([2]; nominal urine concentration 80 ug/ml): 91.2% | bladder tumor growth after inoculation with T24 tumor cells ([2]; average urine concentration 40 ug/mL): significantly reduce bladder tumor growth | TNF-α level [3]: moderately increased | average gemcitabine urine concentration [4]: 40 µg/mL | percentage of splenic CD4+FOXP3+ regulatory T cells [5]: increased | percentage of splenic CD8+FOXP3+ regulatory T cells [5]: increased | subcutaneous tumor growth in rats without bladder tumor [6]: continued to grow throughout both treatment cycles | circulating TGF-β plasma concentration [7]: suppressed TGF-β production | percentage of activated CD4 cells in the spleen [8]: increased | percentage of activated CD8 cells in the spleen [8]: increased | subcutaneous tumor volume at reduced urine concentrations [9]: dose related reduction in subcutaneous tumor volume | subcutaneous tumor volume during the second treatment cycle [9]: significantly decreased to near ablation | flank tumor growth arrest during the 7-day drug free period ([10]; 60 ug/ml group): this effect was maintained | flank tumor response, implantation delayed to 3 days before the second perfusion ([10]; flank tumor implanted 14 days after bladder tumor): no tumor growth, but immediate tumor ablation | flank tumor response to the second perfusion ([10]; flank tumors implanted simultaneously with bladder tumors): rapid flank tumor ablation in all but one animal | flank tumor growth during the first perfusion cycle [10, 15]: fully arrested | flank tumor size relative to controls during the first perfusion cycle [10, 15]: 50 % of controls | subcutaneous tumor volume during second 5-day intravesical perfusion ([11]; Group 3 (SCT after BT): subcutaneous tumor implanted Day 17 after first perfusion, 180 ug/mL): all subcutaneous tumors were undetectable by palpation; also recorded: immediately declined in tumor volume until the tumors were no longer detectable | eradication of subcutaneous tumors upon retreatment ([11]; Group 3 and 4 combined, two 5-day cycles of 180 ug/mL): complete eradication of all but one subcutaneous tumor | subcutaneous tumor volume after second 5-day intravesical treatment ([11]; Group 4 (SCT with BT), 180 ug/mL, second cycle from Day 20): all but one tumor was undetectable by palpation | subcutaneous tumor growth over the 7-day drug free period ([11]; Group 4 (SCT with BT), after first 5-day perfusion of 180 ug/mL): failed to return to their initial growth rate | subcutaneous tumor growth by the end of the first intravesical perfusion period ([11]; Group 4 (SCT with BT): bladder and subcutaneous tumors Day 4, 180 ug/mL perfused 0.3 mL per hour for 5 days): dramatically slowed or fully arrested; also recorded: continued to grow for several days prior to arresting | systemic drug concentrations after low concentrations of intravesical gemcitabine [12]: do not produce therapeutic drug concentrations systemically | IL-10 levels [13]: increased IL-10 levels | bladder tumor growth after inoculation with NBTII tumor cells [14]: significantly reduce bladder tumor growth
